Patent US9469648B2, “Reversal of drug-induced neuromuscular block using novel molecular containers” (University of Maryland, College Park, priority 2010, dated 2016)
Like-named read-outs stand apart in the source and are kept apart here.

Key:
[1] = Binding affinities of compounds towards Motor2
HEK293 = assay: AK (adenylate kinase release) cytotoxicity assay, HEK293; format: cell-based
From the text: FIG. 27. Toxicology of Motor1 using the human kidney cell line HEK293. Results from (A) MTS assay (B) AK assay. Untreated population (UT), Distilled water (D), Erythromycin (E), Erythromycin Estolate (EE).
(§1) Toxicity Studies: To measure the cellular toxicity of Motor1 we use two complementary assays: an MTS (CellTiter 96 AQueous Kit®) assay that measures cellular metabolism, and a cytotoxicity assay (Toxilight®BioAssay Kit) that measures cell death via the release of the cytosolic enzyme adenylate kinase into the supernatant. Both assays were used with two different cell lines commonly used in drug toxicity studies, HEK293 and HepG2 cell lines. HEK293, a human kidney cell line, is used to assess the effect of the drug candidate on the renal system and HepG2, a human hepatocyte cell line, is used to assess the response of liver cells where drugs are metabolized. Both assays included the use of an untreated population, and cells treated with distilled water, erythromycin and erythromycin estolate. Erythromycin is a commercially available drug widely used to treat bacterial infections. […] […].
(§2) Both cell lines were incubated with the containers (0.01, 0.1, 1 and 10 mM) for 2 days prior to analysis with the two assays. Relative absorbance and luminescence data was normalized to percent cell viability (MTS) and cell death (AK). For the MTS assay, the untreated cells were set at 100% cell viability while the cell population treated with distilled water was set at a 100% cell death for the AK assay.

[2] = rat, in vivo
[3] = Tolerance in mice after tail vein injection (body weight); format: in vivo; settings: tail vein injection at day 0, 4 and 8, weight monitored
Method: FIG. 30. […] Indicated amounts of Motor1 were injected into the tail vein of outbred Swiss Webster mice at day 0, 4 and 8. The weight of each mouse was monitored over time and there were 5 mice per experimental group.
Indicated amounts of Motor1 were injected into the tail vein of outbred Swiss Webster mice at day 0, 4 and 8. The weight of each mouse was monitored over time and there were 5 mice per experimental group.

[4] = system: rocuronium-induced neuromuscular block; assay: Reversal of rocuronium-induced neuromuscular block in anesthetized rats; format: in vivo; settings: for Time until normal breathing recovered: rocuronium 3.5 mg/kg, placebo 720 s; for Time until quadriceps femoris twitch height normalized: rocuronium, placebo 960 s
Method: (§3) Spontaneous breathing was maintained during surgery and if possible according to normal protocol. Rats lay in the supine position with the head supported in a neutral position in the midline on a soft piece of tissue. The left femoral vein and artery were cannulated for drug infusion and blood sampling. […] Corning, N.Y., USA) and continuous measurement of blood pressure (PowerLab; ADInstruments, Colorado Springs, Mo.) and heart rate were performed. If mechanical ventilation was necessary animals were ventilated through a tracheostomy (SAR-830; CWE, Ardmore, Pa., USA). Rectal temperature was kept at 37.0±0.1° C. using a thermostatic heating pad (FHC, Bowdoinham, Me.). Level of anesthesia was maintained throughout the experiment to eliminate cardiovascular response to tail pinch. In all treatment groups, systemic physiological parameters were kept well within normal range. The right leg was shaved and the femoral nerve was stimulated supramaximally with subcutaneous needle electrodes, and the evoked response of the quadriceps femoris muscle was measured by accelerometry, with the TOF-Watch SX Monitor (Organon Ireland Ltd, a part of Schering-Plough Corporation, Dublin, Ireland), as described previously (Fassbender et al, Anesthesiology 2007). The transducer was fixed to the skin ventromedially at the proximal end of the thigh, next to the tibial tuberosity (insertion point of the patellar ligament). […] Endpoints included time to recovery of spontaneous breathing, twitch height as well as TOF-ratio.

HepG2 = format: cell-based; settings: untreated population 60%
From the text: FIG. 28. Toxicology of Motor1 using the human liver cell line HepG2. Results from (A) MTS assay (B) AK assay. Untreated population (UT), Distilled water (D), Erythromycin (E), Erythromycin Estolate (EE).
as §1, §2

[5] = Self-association study by 1H NMR at varied concentration; format: physicochemical; settings: 20 mM NaD2PO4, pD=7.4, 1H NMR
[6] = rat, in vivo; remark: listed apart in the source
[7] = system: cisatracurium-induced neuromuscular block; assay: Reversal of cisatracurium-induced neuromuscular block in anesthetized rats; format: in vivo; settings: for Time until normal breathing recovered / Time until quadriceps femoris twitch height normalized: cisatracurium; for Time until normal breathing recovered: placebo 750 (17) s, means (SD); for Time until quadriceps femoris twitch height normalized: placebo 1002 (122) s
Method: as §3

[8] = Binding of Motor1 and Motor2 with Etomidate
[9] = Binding of Motor1 and Motor2 with Ketamine (Rhodamine 6G indicator competition, UV-VIS); settings: Rhodamine 6G displacement titration, 20 mM phosphate buffer pH 7.4
ketamine anesthesia = assay: Reversal of ketamine anesthesia in rats; format: in vivo
[10] = Binding constants of Motor1 towards guests; settings: host Motor1
[11] = ketamine anesthesia, Motor2 200 mg

COc1ccc(CC2c3cc(OC)c(OC)cc3CC[N+]2(C)CCC(=O)OCCCCCOC(=O)CC[N+]2(C)CCc3cc(OC)c(OC)cc3C2Cc2ccc(OC)c(OC)c2)cc1OC (centres unmarked) [Atracurium besilate]
Ka (M^−1) with Motor2 ([1]; host Motor2): 1.0 ± 0.1 × 10^9 M^−1

CCC(=O)O[C@H]1[C@H](O[C@@H]2[C@@H](C)[C@H](O[C@H]3C[C@@](C)(OC)[C@@H](O)[C@H](C)O3)[C@@H](C)C(=O)O[C@H](CC)[C@@](C)(O)[C@H](O)[C@@H](C)C(=O)[C@H](C)C[C@@]2(C)O)O[C@H](C)C[C@@H]1N(C)C [Erythromycin estolate]
Percent cell death (AK) (HEK293; human, 2 days, 1 mM): 49%

CC[C@H]1OC(=O)[C@H](C)[C@@H](O[C@H]2C[C@@](C)(OC)[C@@H](O)[C@H](C)O2)[C@H](C)[C@@H](O[C@@H]2O[C@H](C)C[C@H](N(C)C)[C@H]2O)[C@](C)(O)C[C@@H](C)C(=O)[C@H](C)[C@@H](O)[C@]1(C)O [Erythromycin]
Percent cell death (AK) (HEK293; HEK293, 1 mM): 25%

CC12N3Cc4c(OCCCS(=O)(=O)[O-])ccc(OCCCS(=O)(=O)[O-])c4CN1C(=O)N1CN4C(=O)N5CN6C(=O)N7CN8C(=O)N9Cc%10c(OCCCS(=O)(=O)[O-])ccc(OCCCS(=O)(=O)[O-])c%10CN%10C(=O)N(CN%11C(=O)N(CN%12C(=O)N(CN(C3=O)C12C)C4C%125)C6C%117)C8(C)C%109C.[Na+].[Na+].[Na+].[Na+] (centres unmarked) [Motor1]
Percent cell death (AK) (HEK293; HEK293, all concentrations (0.01, 0.1, 1 and 10 mM)): below 5%
Percent hemolysis (human erythrocytes): ≤ 20%
Toxicity to human erythrocytes (overall) (human erythrocytes): non-toxic
Arterial blood gas parameters pH, pCO2, and pO2 [2]: did not change
Heart rate and mean arterial blood pressure [2]: did not change
Side effects on arterial blood-gas analysis, EKG, arterial blood pressure, heart rate [2]: did not have any side effects
Tolerance in mice [3]: well tolerated
Mean recovery of spontaneous breathing ([4]; complete rocuronium-induced block, 90 mg as printed): 723 s
Mean recovery of spontaneous breathing ([4]; complete rocuronium-induced block, dose not given): 10 s
Reversal of rocuronium (in words) ([4]; rats, Motor1 10, 20, 30 mg): reversed rocuronium effectively, in a dose-dependent fashion
Time until normal breathing recovered ([4]; Motor1 10 mg): 120 ± 15 s
Time until normal breathing recovered ([4]; Motor1 20 mg): 15 ± 5 s
Time until normal breathing recovered ([4]; Motor1 30 mg): 8 ± 3 s
Time until quadriceps femoris twitch height normalized ([4]; Motor1 10 mg): 240 s
Time until quadriceps femoris twitch height normalized ([4]; Motor1 20 mg): 120 s
Time until quadriceps femoris twitch height normalized ([4]; Motor1 30 mg): 60 s
% cell death (AK) (HepG2; HepG2, 0.01 mM): 55%
% cell death (AK) (HepG2; HepG2, 0.1 mM): 56%
% cell death (AK) (HepG2; HepG2, 1 mM): 50%
% cell death (AK) (HepG2; HepG2, 10 mM): 17%
Ka, two-fold self-association model [5]: 47 M⁻¹
Motor1 concentration in the urine relative to plasma [6]: equals concentration in the plasma
Time until normal breathing recovered ([7]; 30 mg Motor1): 28 (6) s
Time until normal breathing recovered ([7]; 60 mg Motor1): 11 (4) seconds
Time until quadriceps femoris twitch height normalized ([7]; first Motor1 dose listed (dose not given; 15 mg)): 266 (17) s
Time until quadriceps femoris twitch height normalized ([7]; second Motor1 dose listed (30 mg)): 130 (14) s
Time until quadriceps femoris twitch height normalized ([7]; third Motor1 dose listed (60 mg)): 68 (10) s
Binding constant with Etomidate [8]: 35318 M⁻¹
Binding constant (Ka) with Ketamine [9]: 39020 M⁻¹

CC12N3Cc4c(c(OCCCS(=O)(=O)[O-])c5ccccc5c4OCCCS(=O)(=O)[O-])CN1C(=O)N1CN4C(=O)N5CN6C(=O)N7CN8C(=O)N9Cc%10c(c(OCCCS(=O)(=O)[O-])c%11ccccc%11c%10OCCCS(=O)(=O)[O-])CN%10C(=O)N(CN%11C(=O)N(CN%12C(=O)N(CN(C3=O)C12C)C4C%125)C6C%117)C8(C)C%109C.[Na+].[Na+].[Na+].[Na+] (centres unmarked) [Motor2]
Reversal of ketamine anesthesia (in words) (ketamine anesthesia; ketamine 1500 μg/kg/min, Motor2 200 mg at 60 minutes): reverses ketamine anesthesia
Electroencephalogram (EEG) (ketamine anesthesia; [11]): wakefulness-like electrical activity
Respiratory rate and arterial blood pressure (ketamine anesthesia; [11]): increased
Time until the rat woke up after injection (ketamine anesthesia; steady-state ketamine infusion, Motor2 200 mg): ≤ 2 min
Side effects on arterial blood-gas analysis, EKG, arterial blood pressure, heart rate [2]: did not have any side effects
Mean time to recovery of the twitch height to 90% ([4]; complete rocuronium-induced block, 90 mg, placebo 19 minutes): 2.5 min
Ka, two-fold self-association model [5]: 624 M⁻¹
Speed of reversal of cisatracurium, twitch height recovery (comparison) ([7]; low-dose Motor2 versus high-dose Motor1): reverses the benzylisoquinolinum cisatracurium faster than high-dose 1
Binding constant with Etomidate [8]: 36812 M⁻¹
Binding constant (Ka) with Ketamine [9]: 193490 M⁻¹

Nc1ccc2cc3ccc(N)cc3nc2c1 [Proflavin]
Ka (M^−1) with Motor2 ([1]; host Motor2): 7.8 ± 0.8 × 10^8 M^−1

COc1ccc(CC2c3cc(OC)c(OC)cc3CC[N+]2(C)CCC(=O)OCCCCCOC(=O)CC[N+]2(C)CCc3cc(OC)c(OC)cc3C2Cc2ccc(OC)c(OC)c2)cc1OC (centres unmarked) [atracurium]
Ka, binding constant of Motor1 towards guest [10]: 1.4 ± 0.1 × 10^6

CC[N+](CC)(CC)CCOc1cccc(OCC[N+](CC)(CC)CC)c1OCC[N+](CC)(CC)CC [gallamine]
Ka (M^−1) with Motor2 [1]: 3.2 ± 0.4 × 10^8 M^−1
Ka, binding constant of Motor1 towards guest [10]: 6.2 ± 0.5 × 10^6

COc1cc2c3cc1Oc1cc(ccc1O)C[C@@H]1c4c(cc(OC)c(O)c4Oc4ccc(cc4)C[C@@H]3N(C)CC2)CC[N+]1(C)C [tubocurarine]
Ka, binding constant of Motor1 towards guest [10]: 4.7 ± 0.2 × 10^5

CC(=O)O[C@H]1C[C@@H]2CC[C@@H]3[C@H](CC[C@@]4(C)[C@H]3C[C@H]([N+]3(C)CCCCC3)[C@@H]4OC(C)=O)[C@@]2(C)C[C@@H]1N1CCCCC1 [vecuronium]
Ka (M^−1) with Motor2 [1]: 1.6 ± 0.2 × 10^9 M^−1
Ka, binding constant of Motor1 towards guest [10]: 5.8 ± 0.9 × 10^6

Cyclohexanediamine
Ka (M^−1) with Motor2 ([1]; host Motor2): 2.1 ± 0.2 × 10^8 M^−1
